# In PubChem BioAssay AID1845202 (Molecular Pharmacology Branch, DTP, NCI, 2023):
# Test system: DMS 114 tumor spheroids, viability % test/control
# Assay: Anticancer human tumor DMS 114 cell line growth inhibition;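 note: spheroids exposed to compounds for 7 days before read-out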;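 for viability, T/C: luminescence used as a proxy for viable cells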
# Settings: spheroids with HUVEC and MSC; for IC50: curve of first compound; for viability, T/C: stronger effect = lower value
# In short: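 Single agents and combinations were tested on spheroids built from tumor cells plus HUVEC and hMSC, at half-log dilutions starting at or near clinical Cmax, else 10 microM; final DMSO 0.25% (v/v).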
# [1] = second compound 1 µM, first compound 0.0949 µM
# [2] = second compound 1 µM, first compound 0.3 µM
# [3] = second compound 1 µM, first compound 0.949 µM
# [4] = second compound 1 µM, first compound 3 µM
# [5] = second compound 3.16 µM, first compound 0.0949 µM
# [6] = second compound 3.16 µM, first compound 0.3 µM
# [7] = second compound 3.16 µM, first compound 0.949 µM
# [8] = second compound 3.16 µM, first compound 3 µM
# [9] = second compound 10 µM, first compound 0.0949 µM
# [10] = second compound 10 µM, first compound 0.3 µM
# [11] = second compound 10 µM, first compound 0.949 µM
# [12] = second compound 10 µM, first compound 3 µM
# [13] = second compound 31.6 µM, first compound 0.0949 µM
# [14] = second compound 31.6 µM, first compound 0.3 µM
# [15] = second compound 31.6 µM, first compound 0.949 µM
# [16] = second compound 31.6 µM, first compound 3 µM
# [17] = second compound 100 µM, first compound 0.0949 µM
# [18] = second compound 100 µM, first compound 0.3 µM
# [19] = second compound 100 µM, first compound 0.949 µM
# [20] = second compound 100 µM, first compound 3 µM
smiles,measurement,setting,value
O=C(c1cc(Cc2n[nH]c(=O)c3ccccc23)ccc1F)N1CCN(C(=O)C2CC2)CC1 + Cn1nnc2c(C(N)=O)ncn2c1=O,IC50,second compound 1 µM,20000 nM
same,IC50,second compound 3.16 µM,21900 nM
same,IC50,second compound 10 µM,10200 nM
same,IC50,second compound 31.6 µM,2660 nM
same,IC50,second compound 100 µM,252 nM
same,"viability, T/C",[1],106%
same,"viability, T/C",[2],99.2%
same,"viability, T/C",[3],105%
same,"viability, T/C",[4],106%
same,"viability, T/C","second compound 1 µM, first compound 9.49 µM",73.9%
same,"viability, T/C","second compound 1 µM, first compound 30 µM",37%
same,"viability, T/C",[5],112%
same,"viability, T/C",[6],109%
same,"viability, T/C",[7],108%
same,"viability, T/C",[8],102%
same,"viability, T/C","second compound 3.16 µM, first compound 9.49 µM",68.5%
same,"viability, T/C","second compound 3.16 µM, first compound 30 µM",43.1%
same,"viability, T/C",[9],120%
same,"viability, T/C",[10],111%
same,"viability, T/C",[11],118%
same,"viability, T/C",[12],81.6%
same,"viability, T/C","second compound 10 µM, first compound 9.49 µM",54.3%
same,"viability, T/C","second compound 10 µM, first compound 30 µM",30.1%
same,"viability, T/C",[13],110%
same,"viability, T/C",[14],103%
same,"viability, T/C",[15],83.7%
same,"viability, T/C",[16],46.2%
same,"viability, T/C","second compound 31.6 µM, first compound 9.49 µM",28.1%
same,"viability, T/C","second compound 31.6 µM, first compound 30 µM",25.8%
same,"viability, T/C",[17],60.2%
same,"viability, T/C",[18],48.7%
same,"viability, T/C",[19],32.9%
same,"viability, T/C",[20],25.4%
same,"viability, T/C","second compound 100 µM, first compound 9.49 µM",21.1%
same,"viability, T/C","second compound 100 µM, first compound 30 µM",19%
CNCc1ccc(-c2cc(-c3nc(-c4ccc(S(=O)(=O)C(C)C)cc4)cnc3N)on2)cc1 + Cn1nnc2c(C(N)=O)ncn2c1=O,IC50,second compound 1 µM,186 nM
same,IC50,second compound 3.16 µM,178 nM
same,IC50,second compound 10 µM,175 nM
same,IC50,second compound 31.6 µM,161 nM
same,IC50,second compound 100 µM,91.6 nM
same,"viability, T/C","second compound 1 µM, first compound 0.00949 µM",103%
same,"viability, T/C","second compound 1 µM, first compound 0.03 µM",94.4%
same,"viability, T/C",[1],80.9%
same,"viability, T/C",[2],28.3%
same,"viability, T/C",[3],5.64%
same,"viability, T/C",[4],0.18%
same,"viability, T/C","second compound 3.16 µM, first compound 0.00949 µM",102%
same,"viability, T/C","second compound 3.16 µM, first compound 0.03 µM",103%
same,"viability, T/C",[5],77.6%
same,"viability, T/C",[6],27%
same,"viability, T/C",[7],3.9%
same,"viability, T/C",[8],0.24%
same,"viability, T/C","second compound 10 µM, first compound 0.00949 µM",101%
same,"viability, T/C","second compound 10 µM, first compound 0.03 µM",99.3%
same,"viability, T/C",[9],72.7%
same,"viability, T/C",[10],30.2%
same,"viability, T/C",[11],2.75%
same,"viability, T/C",[12],0.19%
same,"viability, T/C","second compound 31.6 µM, first compound 0.00949 µM",114%
same,"viability, T/C","second compound 31.6 µM, first compound 0.03 µM",92%
same,"viability, T/C",[13],75.8%
same,"viability, T/C",[14],22.4%
same,"viability, T/C",[15],2.81%
same,"viability, T/C",[16],0.23%
same,"viability, T/C","second compound 100 µM, first compound 0.00949 µM",89.7%
same,"viability, T/C","second compound 100 µM, first compound 0.03 µM",83.3%
same,"viability, T/C",[17],47.4%
same,"viability, T/C",[18],16.1%
same,"viability, T/C",[19],2.42%
same,"viability, T/C",[20],0.69%
O=C(c1cc(Cc2n[nH]c(=O)c3ccccc23)ccc1F)N1CCN(C(=O)C2CC2)CC1 + COc1cc2c(cc1O)CCNC21CSC2c3c(OC(C)=O)c(C)c4c(c3C(COC1=O)N1C(O)C3Cc5cc(C)c(OC)c(O)c5C(C21)N3C)OCO4,IC50,second compound 30 pM,5540 nM
same,IC50,second compound 94.9 pM,3670 nM
same,IC50,second compound 0.0003 µM,< 94.9 nM
same,IC50,second compound 0.000949 µM,< 94.9 nM
same,IC50,second compound 0.003 µM,< 94.9 nM
same,"viability, T/C","second compound 30 pM, first compound 0.0949 µM",106%
same,"viability, T/C","second compound 30 pM, first compound 0.3 µM",103%
same,"viability, T/C","second compound 30 pM, first compound 0.949 µM",97.1%
same,"viability, T/C","second compound 30 pM, first compound 3 µM",83.8%
same,"viability, T/C","second compound 30 pM, first compound 9.49 µM",20.2%
same,"viability, T/C","second compound 30 pM, first compound 30 µM",17.4%
same,"viability, T/C","second compound 94.9 pM, first compound 0.0949 µM",92.3%
same,"viability, T/C","second compound 94.9 pM, first compound 0.3 µM",94.6%
same,"viability, T/C","second compound 94.9 pM, first compound 0.949 µM",88.1%
same,"viability, T/C","second compound 94.9 pM, first compound 3 µM",57.2%
same,"viability, T/C","second compound 94.9 pM, first compound 9.49 µM",17.3%
same,"viability, T/C","second compound 94.9 pM, first compound 30 µM",13.7%
same,"viability, T/C","second compound 0.0003 µM, first compound 0.0949 µM",29.5%
same,"viability, T/C","second compound 0.0003 µM, first compound 0.3 µM",21.9%
same,"viability, T/C","second compound 0.0003 µM, first compound 0.949 µM",23.2%
same,"viability, T/C","second compound 0.0003 µM, first compound 3 µM",14.8%
same,"viability, T/C","second compound 0.0003 µM, first compound 9.49 µM",7.77%
same,"viability, T/C","second compound 0.0003 µM, first compound 30 µM",7.92%
same,"viability, T/C","second compound 0.000949 µM, first compound 0.0949 µM",3.19%
same,"viability, T/C","second compound 0.000949 µM, first compound 0.3 µM",2.4%
same,"viability, T/C","second compound 0.000949 µM, first compound 0.949 µM",2.21%
same,"viability, T/C","second compound 0.000949 µM, first compound 3 µM",2.86%
same,"viability, T/C","second compound 0.000949 µM, first compound 9.49 µM",1.24%
same,"viability, T/C","second compound 0.000949 µM, first compound 30 µM",0.5%
same,"viability, T/C","second compound 0.003 µM, first compound 0.0949 µM",0.24%
same,"viability, T/C","second compound 0.003 µM, first compound 0.3 µM",0.22%
same,"viability, T/C","second compound 0.003 µM, first compound 0.949 µM",0.19%
same,"viability, T/C","second compound 0.003 µM, first compound 3 µM",0.2%
same,"viability, T/C","second compound 0.003 µM, first compound 9.49 µM",0.19%
same,"viability, T/C","second compound 0.003 µM, first compound 30 µM",0.4%
